# Experimental data reported in patent US20250295732A1, “COMPOSITIONS AND METHODS FOR ACTIVATING INNATE IMMUNITY” (Zoetis Services LLC, priority 2021, published 2025).
# What was measured:
# [1] = system: bovine monocyte-derived macrophages; test: LPS-induced lactate production (LactateGlo); type: cell-based; details: CATH2 24 hr, removal, 3-day rest, LPS 24 hours; vs vehicle
# Excerpt: (§1) Peripheral blood mononuclear cells (PBMC) were isolated from bovine blood using ficoll gradients. Bovine monocytes were isolated from PBMC using magnetic assisted cell sorting to positively select for CD14+ cells using anti-human CD14 microbeads (Miltenyi Biotec). Purified bovine blood CD14+ monocytes were differentiated into macrophages using an M2-skewing differentiation factor (recombinant bovine M-CSF) over 7 days then exposed to CATH2 or a vehicle control in the presence of bovine casein to mimic aspects of the mammary gland for 24 hr. Following treatment, vehicle and drug were removed and cells were washed to eliminate residual drug and monocyte-derived macrophages were rested for 3 days in order to assess reprogramming. Following the rest period, a subset of vehicle- and CATH2-trained monocyte-derived macrophages were assessed for epigenetic and transcriptomic changes. The remaining cells were challenged with LPS or E. coli bioparticle labeled with pH-sensitive pHrodo green dye and key parameters for macrophage activation/immune response were assessed including glycolytic activity, surface marker expression, gene expression, cytokine production, phagocytosis, reactive nitrogen species production, and miRNA profiling.
# Lactate levels in cell culture supernatant were quantified using LactateGlo® (Promega) according to manufacturer's instructions.
# [2] = system: bovine monocyte-derived macrophages; test: H3 histone modification quantification (ELISA); type: cell-based; details: vs vehicle
# Excerpt: as §1, with “Following treatment, vehicle and drug were removed and cells were washed to eliminate residual drug and monocyte-derived macrophages were rested for 3 days in order to assess reprogramming.” left out
# Histones were isolated from bovine monocyte-derived macrophages using commercially available histone extraction kits (Epigentek) according to the manufacturer's instructions and stored at −80° C. until histone quantification assays could be performed. […]
# [3] = system: bovine monocyte-derived macrophages; test: ChIP-Seq for H3K27ac; type: cell-based; details: after CATH2 exposure and 3-day rest, pre-LPS; vs vehicle
# Excerpt: as §1, with “profiling. […]” for “profiling.”
# [4] = system: bovine monocyte-derived macrophages; test: Flow cytometric surface marker expression after LPS; type: cell-based; details: 24 hr following LPS after CATH2 removal and 3-day rest; vs vehicle
# Excerpt: as §1, with “Following treatment, vehicle and drug were removed and cells were washed to eliminate residual drug and monocyte-derived macrophages were rested for 3 days in order to assess reprogramming.” left out
# Expression of surface markers on bovine monocyte-derived macrophages and cells isolated from bovine milk were assessed using flow cytometry. […] Following incubation with live/dead stain and antibodies, labeled cells were washed, and then analyzed on a ZE5 CellAnalyzer (BioRad) for monocyte-derived macrophages and a FACS Canto II (BD) for milk cells. […]
# [5] = system: milk macrophages (CD14+CD172a+ milk cells); test: In vivo intramammary treatment and E. coli mastitis challenge model; parameters: species or system lactating dairy cows
# Description: Healthy lactating dairy cows were treated according to table 1 on day −2 of study, at the AM milking, in the front quarters designated by the allotment, one quarter was treated with CATH2 and the neighboring quarter within the same cow was given vehicle control by intramammary infusion. Following administration of CATH2 and vehicle doses, quarters which received CATH2 or vehicle received an intramammary infusion of live Escherichia coli. The E. coli strain used causes clinical mastitis. Milk samples from CATH2-treated and vehicle control quarters were collected following E. coli challenge for cell isolation to assess macrophage surface marker expression.
# Expression of surface markers on bovine monocyte-derived macrophages and cells isolated from bovine milk were assessed using flow cytometry. In brief, for monocyte-derived macrophages, cells were lifted with Accutase, washed, and then incubated with fluorescently tagged antibodies against bovine surface markers of interest (CD163, CD14, CD80, MHC II) and a live/dead stain. In brief, for cells in bovine milk, milk was diluted in MACS Running Buffer, spun, fat layer and supernatant were discarded, and milk cell pellets were preserved in Streck. Preserved milk cells were washed again and then incubated with fluorescently tagged antibodies against bovine surface markers of interest (CD163, CD14, CD80, MHC II, CD172a) and a live/dead stain. Following incubation with live/dead stain and antibodies, labeled cells were washed, and then analyzed on a ZE5 CellAnalyzer (BioRad) for monocyte-derived macrophages and a FACS Canto II (BD) for milk cells. Flow cytometry data were analyzed using FlowJo analysis software (Becton Dickson) to assess relative levels of expression via mean fluorescent intensity for each marker of interest within the live CD14+ cell population (for monocyte-derived macrophages) or within the live CD14+CD172a+ cell population (for milk cells).
# [6] = system: bovine monocyte-derived macrophages; test: Phagocytosis of pHrodo green-labeled E. coli bioparticle (IncuCyte); type: cell-based; details: <4 hr from challenge with E. coli bioparticles (10 μg/mL); after CATH2 24 hr and 3-day rest; vs vehicle
# Excerpt: as §1, with “Following treatment, vehicle and drug were removed and cells were washed to eliminate residual drug and monocyte-derived macrophages were rested for 3 days in order to assess reprogramming.” left out, “profiling. In brief, E. coli bioparticle labeled with pHrodo-green pH sensitive dye (Invitrogen) were added to monocyte-derived macrophages and phase and green fluorescence was captured over time using the S3 IncuCyte® Live-Cell Analysis System (Essen Bioscience) over a period of 24-hr. […]” for “profiling.”
# [7] = intramammary CATH2 prior to E. coli challenge
sequence,measurement,setting,value
"RFGRFLRKIRRFRPKVTITIQGSARFG [CATH2, cathelicidin 2 peptide]",LPS-induced lactate production in supernatant,[1],increased lactate production
same,"H3 histone modifications (incl. H3K27ac, H3K4me1)","[2]; after CATH2 exposure and rest period, pre-LPS",increased levels of various H3 histone modifications
same,H3 histone modifications following LPS challenge,"[2]; after CATH2 exposure, rest, LPS 1 μg/mL 24 hr",some modifications are retained to a lesser extent
same,ChIP-Seq peaks with H3K27ac mark,[3],increased number of peaks with H3K27ac mark
same,"Surface marker expression (CD14, CD80, MHC II, CD163)",[4],enhanced expression of multiple surface markers
same,Bacterial counts in milk,[5]; [7],reduced bacterial counts in milk
same,Milk somatic cell counts,[5]; [7],lower milk somatic cell counts
same,"Milk macrophage surface marker expression (CD14, CD80, MHC II, CD163)","[5]; intramammary CATH2 prior to challenge, 12 hr following live E. coli intramammary challenge, vs vehicle quarter",enhanced expression of the same surface markers
same,Phagocytosis of E. coli bioparticles,[6],enhanced phagocytosis of E. coli bioparticles
